Source: patent US20250082633A1, “COMPOUNDS AND METHODS FOR MODULATING SPLICING” (REMIX THERAPEUTICS INC., priority 2021, published 2025)
Where two headings read alike, the source gives them in different places.

Key:
Format in all cases: cell-based
SMN2 mRNA = experiment: RT-qPCR splicing assay, gene panel, SMN2 canonical junction (CJ) mRNA; conditions: Homo sapiens, read-out: SMN2 CJ IC50
Summary of the method: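 A673 (DMEM/10% FBS) or K562 (IMDM/10% FBS) cells were treated 24 h at 37 °C with an 11-point 3-fold dilution series, top final 10 uM, DMSO ≤0.25%. Lysates underwent one-step RT-qPCR for the canonical-junction isoform with GAPDH, GUSB or PPIA as housekeeper. ΔΔCt versus DMSO was converted to RQ (2^−ΔΔCt), then to percent response.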

HTT mRNA = experiment: RT-qPCR splicing assay, HTT canonical (CJ) and alternative (AJ) junction mRNA; conditions: Homo sapiens; for IC50: read-out: HTT CJ IC50; for AC50: read-out: HTT AJ AC50
Summary of the method: (§1)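 Splice-junction mRNAs (CJ, AJ) measured by TaqMan one-step RT-qPCR on cell lysates, using PPIA as reference for adherent A673 and GAPDH or GUSB for K562. Cells exposed for 24 h to 11 threefold concentrations up to 10 uM final, with DMSO at or below 0.25%.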

K562 cells = experiment: Cell Titer Glo 2.0 cell viability assay; conditions: Homo sapiens, 500 cells/well, 72 hours
Summary of the method: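 K562 cells (500/well) in IMDM with 10% FBS were exposed to serially diluted compounds at 0.1% DMSO final. After 72 h at 37° C, 5% CO2, viability was read by CellTiter-Glo 2.0 luminescence, with medium-only blanks.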

MYB mRNA = experiment: RT-qPCR splicing assay, MYB canonical (CJ) and alternative (AJ) junction mRNA; conditions: Homo sapiens; for IC50: read-out: MYB CJ IC50; for AC50: read-out: MYB AJ AC50
Summary of the method: as §1

[1] = decrease in CJ mRNA levels, larger panel of genes, Table 3
[2] = decrease in canonical junction mRNA, A673 or K562 cells, 24 hours treatment, Table 2
[3] = increase in alternative junction mRNA, A673 or K562 cells, 24 hours treatment, Table 2

Row | Compound | IC50 (SMN2 mRNA; [1]) [µM] | IC50 (HTT mRNA; [1]) [µM] | IC50 (HTT mRNA; [2]) [µM] | GI50 (K562 cells) [µM] | IC50 (MYB mRNA; [1]) [µM] | IC50 (MYB mRNA; [2]) [µM] | AC50 (HTT mRNA; [3]) [µM] | AC50 (MYB mRNA; [3]) [µM] | IC50 (SMN2 mRNA) [µM] | AC50 (HTT mRNA; 24 h) [µM] | IC50 (HTT mRNA; 24 h) [µM] | IC50 (HTT mRNA) [µM] | AC50 (MYB mRNA; 24 h) [µM] | IC50 (MYB mRNA; 24 h) [µM] | IC50 (MYB mRNA) [µM]
1 | Cc1nc2c(F)cc(-c3cc(F)c4nn(C5CCNCC5)cc4c3)cc2o1 [Compound 136, 4-fluoro-6-[7-fluoro-2-(4-piperidyl)indazol-5-yl]-2-methyl-1,3-benzoxazole] | < 0.1 | < 0.1 | < 0.1 | 0.1 to 1 | 0.1 to 1 | 0.1 to 1 | < 0.1 | 0.1 to 1 | – | – | – | – | – | – | –
2 | Cc1nc2c(C)cc(-c3cc(F)c4nn(C5CCNCC5)cc4c3)cc2o1 [Compound 137, 6-[7-fluoro-2-(4-piperidyl)indazol-5-yl]-2,4-dimethyl-1,3-benzoxazole] | < 0.1 | < 0.1 | < 0.1 | 0.1 to 1 | 0.1 to 1 | 0.1 to 1 | < 0.1 | 0.1 to 1 | – | – | – | – | – | – | –
3 | COC1=C(C)C2N=C(C)OC2C=C1c1cc(F)c2nn(C3CCNCC3)cc2n1 (stereo not drawn) [Compound 144] | 1 to 10 | > 10 | > 10 | 1 to 10 | > 10 | > 10 | > 10 | > 10 | – | – | – | – | – | – | –
4 | Cn1cc2cc(-c3cc(F)c4nn(C5CCNCC5)cc4c3)ccc2n1 [Compound 145, 7-fluoro-5-(2-methylindazol-5-yl)-2-(4-piperidyl)indazole] | < 0.1 | 0.1 to 1 | 0.1 to 1 | 1 to 10 | 1 to 10 | 1 to 10 | 0.1 to 1 | 0.1 to 1 | – | – | – | – | – | – | –
5 | Cc1ccc2nc(-c3cc(F)c4nn(C5CCNCC5)cc4c3)ccc2n1 [Compound 157, 2-[7-fluoro-2-(4-piperidyl)indazol-5-yl]-6-methyl-1,5-naphthyridine] | 1 to 10 | > 10 | > 10 | > 10 | 1 to 10 | 1 to 10 | > 10 | > 10 | – | – | – | – | – | – | –
6 | Fc1cc(-c2ccc3ccncc3c2)cc2cn(C3CCNCC3)nc12 [Compound 158, 7-[7-fluoro-2-(4-piperidyl)indazol-5-yl]isoquinoline] | 1 to 10 | > 10 | > 10 | 1 to 10 | > 10 | > 10 | > 10 | > 10 | – | – | – | – | – | – | –
7 | Cc1cn2nc(-c3cc(F)c4nn(C5CCN(CCO)CC5)cc4c3)cc(C)c2n1 [Compound 160, 2-[4-[5-(2,8-dimethylimidazo[1,2-b]pyridazin-6-yl)-7-fluoro-indazol-2-yl]-1-piperidyl]ethanol] | – | – | – | 0.1 to 1 | – | – | – | – | < 0.1 | < 0.1 | < 0.1 | < 0.1 | 0.1 to 1 | 0.1 to 1 | 0.1 to 1
8 | Fc1cc(-c2ccc3cnccc3c2)cc2cn(C3CCNCC3)nc12 [Compound 161, 6-[7-fluoro-2-(4-piperidyl)indazol-5-yl]isoquinoline] | 0.1 to 1 | 0.1 to 1 | 0.1 to 1 | 1 to 10 | 1 to 10 | 1 to 10 | 1 to 10 | 1 to 10 | – | – | – | – | – | – | –

Second part, led by results:

Row | IC50 (SMN2 mRNA; [1]) [µM] | IC50 (HTT mRNA; [1]) [µM] | IC50 (HTT mRNA; [2]) [µM] | GI50 (K562 cells) [µM] | IC50 (MYB mRNA; [1]) [µM] | IC50 (MYB mRNA; [2]) [µM] | Compound | AC50 (HTT mRNA; [3]) [µM] | AC50 (MYB mRNA; [3]) [µM] | IC50 (SMN2 mRNA) [µM] | AC50 (HTT mRNA; 24 h) [µM] | IC50 (HTT mRNA; 24 h) [µM] | IC50 (HTT mRNA) [µM] | AC50 (MYB mRNA; 24 h) [µM] | IC50 (MYB mRNA; 24 h) [µM] | IC50 (MYB mRNA) [µM]
9 | < 0.1 | < 0.1 | < 0.1 | 1 to 10 | 0.1 to 1 | 0.1 to 1 | Cc1cn2nc(-c3ccc4nn(C5CCNCC5)cc4n3)cc(C)c2n1 [Compound 138, 2,8-dimethyl-6-[2-(4-piperidyl)pyrazolo[4,3-b]pyridin-5-yl]imidazo[1,2-b]pyridazine] | 0.1 to 1 | 1 to 10 | – | – | – | – | – | – | –
10 | 0.1 to 1 | 1 to 10 | 1 to 10 | > 10 | 1 to 10 | 1 to 10 | COc1cc(-c2cc3cn(C)nc3cc2O)nc2cn(C3CCNCC3)nc12 [Compound 140, 5-[7-methoxy-2-(4-piperidyl)pyrazolo[4,3-b]pyridin-5-yl]-2-methyl-indazol-6-ol] | 1 to 10 | 1 to 10 | – | – | – | – | – | – | –
11 | < 0.1 | < 0.1 | < 0.1 | 0.1 to 1 | 0.1 to 1 | 0.1 to 1 | CCN1CCC(n2cc3cc(-c4cc(C)c5nc(C)cn5n4)cc(F)c3n2)CC1 [Compound 146, 6-[2-(1-ethyl-4-piperidyl)-7-fluoro-indazol-5-yl]-2,8-dimethyl-imidazo[1,2-b]pyridazine] | < 0.1 | 0.1 to 1 | – | – | – | – | – | – | –
12 | 0.1 to 1 | 0.1 to 1 | 0.1 to 1 | 0.1 to 1 | 0.1 to 1 | 0.1 to 1 | Cc1cn2nc(-c3cc4cn(C5CCNCC5)nc4cn3)cc(C)c2n1 [Compound 147, 2,8-dimethyl-6-[2-(4-piperidyl)pyrazolo[3,4-c]pyridin-5-yl]imidazo[1,2-b]pyridazine] | 0.1 to 1 | 0.1 to 1 | – | – | – | – | – | – | –
13 | 1 to 10 | 1 to 10 | 1 to 10 | > 10 | > 10 | > 10 | Cn1cc2cc(-c3ccc4cn(C5CCNCC5)nc4c3)cc(F)c2n1 [Compound 148, 7-fluoro-2-methyl-5-[2-(4-piperidyl)indazol-6-yl]indazole] | > 10 | > 10 | – | – | – | – | – | – | –
14 | < 0.1 | < 0.1 | < 0.1 | < 0.1 | 0.1 to 1 | 0.1 to 1 | Cc1cn2nc(-c3cc(F)c4nn(C5CCN(CC6CC6)CC5)cc4c3)cc(C)c2n1 [Compound 149, 6-[2-[1-(cyclopropylmethyl)-4-piperidyl]-7-fluoro-indazol-5-yl]-2,8-dimethyl-imidazo[1,2-b]pyridazine] | < 0.1 | 0.1 to 1 | – | – | – | – | – | – | –
15 | < 0.1 | < 0.1 | < 0.1 | 0.1 to 1 | 0.1 to 1 | 0.1 to 1 | Cc1cn2nc(-c3cc4cn(C5CCNCC5)nc4cc3O)cc(C)c2n1 [Compound 154, 5-(2,8-dimethylimidazo[1,2-b]pyridazin-6-yl)-2-(piperidin-4-yl)-2H-indazol-6-ol] | 0.1 to 1 | 0.1 to 1 | – | – | – | – | – | – | –
16 | < 0.1 | < 0.1 | < 0.1 | 0.1 to 1 | 0.1 to 1 | 0.1 to 1 | COc1cc(-c2cc(C)c3nc(C)cn3n2)cc2cn(C3CCNCC3)nc12 [Compound 155, 6-(7-methoxy-2-(piperidin-4-yl)-2H-indazol-5-yl)-2,8-dimethylimidazo [1,2-b]pyridazine] | 0.1 to 1 | 0.1 to 1 | – | – | – | – | – | – | –
17 | 0.1 to 1 | 0.1 to 1 | 0.1 to 1 | 1 to 10 | 1 to 10 | 1 to 10 | Cc1cn2nc(-c3cc(O)c4nn(C5CCNCC5)cc4c3)cc(C)c2n1 [Compound 156, 5-(2,8-dimethylimidazo[1,2-b]pyridazin-6-yl)-2-(piperidin-4-yl)-2H-indazol-7-ol] | 0.1 to 1 | 1 to 10 | – | – | – | – | – | – | –
18 | > 10 | > 10 | > 10 | > 10 | > 10 | > 10 | COc1cc2nn(C3CCNCC3)cc2cc1-c1cc(C)c2nc(C)cn2n1 [Compound 159, 6-(6-methoxy-2-(piperidin-4-yl)-2H-indazol-5-yl)-2,8-dimethylimidazo[1,2-b]pyridazine] | > 10 | > 10 | – | – | – | – | – | – | –
